Consider two molecules from US20220323414A1, “FARNESOID X RECEPTOR AGONISTS FOR THE TREATMENT OF DISEASE” (Metacrine, Inc., priority 2018, published 2022).

Broadly, the EC50 is the midpoint of the concentration-response curve. High values mean weaker potency, low ones greater potency.

Data set [1] deals with 7-alpha-hydroxy-4-cholesten-3-one (C4). Nature of the data set: Phase 1 MAD pharmacodynamics: plasma C4. Type of data set: in vivo, human. The following applies: healthy subjects. The protocol: (§1) PD: Plasma levels of 7-alpha-hydroxy-4-cholesten-3-one (C4), plasma levels of fibroblast growth factor 19 (FGF19), and levels of total bile acids (for Part B only).
(§2) 6 groups of 10 healthy male subjects each to investigate the safety, tolerability, PK, and PD of multiple oral doses of Compound 1. Subjects in all groups received ascending multiple oral doses of Compound 1 or matching placebo once daily on Days 1 to 14. Dosing was conducted under fasted conditions on each dosing day. Patients in each group received multiple oral doses of 20, 40, 50, 80, 100, and 150 mg of Compound 1 once daily on days 1 to 14 of the study. Eight members of each group received Compound 1, and two members of each group received placebo.

Data set [2] can be described thus: Phase 1 multiple ascending dose PK in healthy subjects (plasma Compound 1 concentrations). It is filed as in vivo, human.
Source text: Purpose: The purposes of this study was to assess the safety and tolerability of single and multiple oral doses of Compound 1, to characterize the pharmacokinetics (PK) of single and multiple oral doses of Compound 1, to characterize the pharmacodynamics (PD) of single and multiple oral doses of Compound 1, and to identify the recommended multiple oral dose level(s) of Compound 1 for future studies in patients. The study was a first-in-human, 2-part, single-center Phase 1, randomized, double-blind, placebo-controlled study in healthy male subjects.
PK: Plasma Compound 1 concentrations, Plasma PK parameters.
as §2

Data set [3] deals with subjects with NASH (liver fat content). Nature of the data set: NASH clinical trial Part 1: hepatic fat. Type of data set: in vivo, human. The conditions noted are these: NASH patients, 50 mg daily, after 28 days. The protocol:
Purpose: The purposes of this study was to evaluate the safety and tolerability of Compound 1 monotherapy in subjects with NASH, to characterize the pharmacokinetics (PK) of Compound 1, to characterize the pharmacodynamics (PD) of Compound 1 dose and response, to estimate the activity of Compound 1 using Magnetic Resonance Imaging-Proton Density Fat Fraction (MRI-PDFF) and NASH fibrosis biomarkers.
(§3) Part 1: An open-label, uncontrolled, single-center study assessing 50 mg of Compound 1 treatment for 4 weeks; 10 subjects were enrolled.
Length of Study: Subjects enrolled in Part 1 participated in the study for approximately 12 weeks, which included a 4-week screening period, 4 weeks (28 days) for the treatment period, and 4 weeks for follow-up. […]
The 10 patients with NASH who enrolled in the study received 50 mg doses of Compound 1 daily for a period of 28 days as described above. Hepatic fat levels in each patient were assessed prior to treatment with Compound 1, after 28 days of treatment with Compound 1, then again 28 days after cessation of treatment with Compound 1.

Data set [4] relates to total bile acids. Nature of the data set: Phase 1 MAD pharmacodynamics: total bile acids. The conditions noted are these: healthy subjects, 50-150 mg/day cohorts, day 14. Type of data set: in vivo, human. The procedure:
as §1, §2

Data set [5] deals with fibroblast growth factor 19 (FGF19). Nature of the data set: Phase 1 MAD pharmacodynamics: plasma FGF19. It is filed as in vivo, human. The following applies: healthy subjects, multiple doses 20 mg to 150 mg. The procedure: as §1, §2
A short description of data set [6]: NASH clinical trial Part 1: plasma levels of Compound 1. It is filed as in vivo, human. The conditions noted are these: 50 mg, healthy and NASH patients. The procedure:
as §3
Pharmacokinetic Assessments: Blood samples will be taken according to the PK sampling schedule.
(§4) Length of Study: Subjects enrolled in Part 1 participated in the study for approximately 12 weeks, which included a 4-week screening period, 4 weeks (28 days) for the treatment period, and 4 weeks for follow-up. Subjects enrolled in Part 2 will participate in the study for approximately 20 weeks, which includes an approximate 4-week screening period, 12 weeks (84 days) for the treatment period, and 4 weeks for follow-up. • Study Treatment (Part 1): Subjects enrolled in Part 1 received Compound 1 50 mg for 28 consecutive days. • Study Treatment (Part 2): Subjects enrolled in Part 2 will receive Compound 1 (80 mg or 50 mg) or matching placebo for 84 consecutive days.

For data set [7], the target named is T1, hFXR (Homo sapiens, UniProt Q96RI1).
T1 construct: expressed in transfected cells; host or cells: CV-1 cells
T1 sequence (Q96RI1 1-486): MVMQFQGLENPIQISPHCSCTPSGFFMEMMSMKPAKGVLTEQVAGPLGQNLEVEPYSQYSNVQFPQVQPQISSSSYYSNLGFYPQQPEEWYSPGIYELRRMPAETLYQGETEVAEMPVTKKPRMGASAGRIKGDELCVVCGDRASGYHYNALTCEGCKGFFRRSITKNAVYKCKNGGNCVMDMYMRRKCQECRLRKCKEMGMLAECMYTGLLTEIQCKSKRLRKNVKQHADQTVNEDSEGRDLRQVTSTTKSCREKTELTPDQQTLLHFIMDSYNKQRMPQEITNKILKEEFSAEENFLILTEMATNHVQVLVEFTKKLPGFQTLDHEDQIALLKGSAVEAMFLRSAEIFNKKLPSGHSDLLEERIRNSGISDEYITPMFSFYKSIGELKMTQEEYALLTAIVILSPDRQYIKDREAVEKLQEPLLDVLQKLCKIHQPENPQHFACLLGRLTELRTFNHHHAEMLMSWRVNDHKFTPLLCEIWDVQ
T1 sequence (P19793 1-462 partner): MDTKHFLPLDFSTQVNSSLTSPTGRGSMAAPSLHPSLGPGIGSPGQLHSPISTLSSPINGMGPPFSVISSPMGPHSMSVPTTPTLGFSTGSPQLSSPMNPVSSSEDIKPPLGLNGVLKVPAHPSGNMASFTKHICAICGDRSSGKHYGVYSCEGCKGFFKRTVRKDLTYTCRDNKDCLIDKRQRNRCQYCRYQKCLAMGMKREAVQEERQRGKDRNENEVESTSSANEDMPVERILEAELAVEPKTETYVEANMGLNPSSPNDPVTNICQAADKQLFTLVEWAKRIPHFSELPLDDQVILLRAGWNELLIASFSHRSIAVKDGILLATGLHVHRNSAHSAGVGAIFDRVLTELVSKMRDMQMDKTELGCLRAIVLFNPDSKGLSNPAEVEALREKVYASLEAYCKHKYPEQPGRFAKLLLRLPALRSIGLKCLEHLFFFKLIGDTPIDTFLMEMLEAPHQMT
Kind of data set: In Vitro FXR Assay (TK). Type of data set: cell-based. The following applies: transfected CV-1 cells, luminescence, 18 hrs. The protocol: CV-1 cells were seeded at a density of 2,000,000 cells in a T175 flask with DMEM+10% charcoal double-stripped FBS and incubated at 37° C. in 5% CO2 for 18 h (O/N).
After 18 h of incubation, the medium in the T175 flask was changed with fresh DMEM+10% charcoal super-stripped serum. In a polypropylene tube, 2500 μL OptiMEM (Life Technologies, Cat #31985-062) was combined with expression plasmids for hFXR, hRXR, TK-ECRE-luc and pCMX-YFP. The tube was then briefly vortexed and incubated at room temperature for 5 minutes. Transfection reagent (X-tremeGENE HP from Roche, Cat #06 366 236 001) was added to the OptiMEM/plasmid mixture vortexed and incubated at room temperature for 20 minutes. Following incubation, the transfection reagent/DNA mixture complex was added to cells in the T175 flask and the cells were incubated at 37° C. in 5% CO2 for 18 h (O/N).
Compounds were serially diluted in DMSO and added to transfected CV-1 cells. The cells were then incubated for 18 hrs. The next day cells were lysed and examined for luminescence.

The subject of data set [8] is gamma-glutamyl transferase (GGT). Kind of data set: NASH clinical trial Part 1: GGT. It is filed as in vivo, human. The following applies: NASH patients, 50 mg daily. The procedure:
as §3, §4
The resulting percent changes from baseline for these biomarkers can be seen in FIG. 6A, FIG. 6B.

Data set [9] has as its system alanine aminotransferase (ALT). Kind of data set: NASH clinical trial Part 1: ALT. It is filed as in vivo, human. The conditions noted are these: NASH patients, 50 mg daily. The protocol:
as §3, §4
Levels of alanine aminotransferase (ALT) and gamma-glutamyl transferase (GGT) were assessed in subjects prior to administration of Compound 1, after 14 days of dosing of Compound 1, and after 28 days of dosing of Compound 1. The resulting percent changes from baseline for these biomarkers can be seen in FIG. 6A, FIG. 6B.

For data set [10], the system named is SCID mice with CD4+CD45RB high T-cell transfer colitis. Kind of data set: Adoptive T-cell transfer colitis mouse model. Type of data set: in vivo. The following applies: for reduction of histopathology sum score: vehicle sum score 10. The procedure: Adoptive T-cell transfer colitis model is accepted as a relevant mouse model for human inflammatory bowel disease (IBD). To induce colitis in this model, the CD4 T-lymphocyte population is isolated from the spleens of donor mice. Subsequently, a subpopulation of CD4+CD45RB high T-cells is purified by cell sorting using flow cytometry. The purified CD4+CD45RB high T-cells are injected into the peritoneal cavity of the recipient severe combined immunodeficiency (SCID) mice. Colitis develops approximately three to six weeks after T-cell transfer, which is monitored by loss of body weight, inconsistent stool or bloody diarrhea. Testing of combinations of an FXR agonist and an additional therapeutic agent described herein is initiated at the same time of injecting purified CD4+CD45RBhigh T-cells to the recipient SCID mice. Alternatively, the combinations of an FXR agonist and an additional therapeutic agent described herein are administered two or three weeks post T-cell transfer, when colitis has already developed in the model. During the period of administering the combinations of an FXR agonist and an additional therapeutic agent described herein to mice, the therapeutic effects may be monitored by observations on body weights, stool consistency, or rectal bleeding. After euthanasia, the disease development and effects of the compounds are further quantified by measuring colon weight and length, and colon histology by H&E staining for inflammation and structural changes in mucosa, and protein and RNA expression of genes related to the disease.

Molecules are shown by their SMILES.

In the case of `COc1ccc([C@H]2CC[C@H](CN(c3cccc(-c4cnn(C5CC5)c4)c3)C(=O)[C@H]3CC[C@H](O)CC3)CC2)cc1C` [Compound 1], in [1] (Day 14), the “dose at which the decrease in C4 levels was notable” value is not below 50 mg and the “mean C4 levels at 24 hours post dose” value is “remained decreased”. The “mean C4 levels versus placebo” value in [1] (multiple doses 20 mg to 150 mg, Day 14, most dose levels) is reported as “lower than for placebo treatment”. The “plasma levels at 24 hours following dosing” value in data set [2] (14 days once daily oral dosing) is “high levels in the plasma at 24 hours following dosing”. The “plasma drug exposure with dose” value in [2] (14 days once daily oral, 20 mg to 150 mg) is on record as “increase in plasma drug exposure with dose”. Further, in [3], the “average reduction in fatty liver deposits from baseline” value was determined as 20.3%. Also, in data set [4], the “change in bile acid levels” value was “decrease in bile acid levels”. In [5], the “mean FGF19 levels” value is “increased” and the “time of maximum increase in mean FGF19 levels” value was in the range of 6 to 10 hours post dose. The “plasma levels over the 24 hour period after dosing” value in data set [6] is “remained nearly constant”. The molecule also had a 50% effective concentration (EC50) in data set [7] not above 250 nM. This molecule registered a GGT levels decrease in data set [8] of 23.2%. Moreover, the “GGT decrease from baseline” value in [8] (day 28) turned out to be 36.3%. The “ALT decrease from baseline” value in [9] (day 14) was determined as 7.9%. Moreover, the ALT below baseline in data set [9] (day 28) amounted to 16.5%.
As to `COc1ncc(-c2cccc(N(C[C@H]3CC[C@H](c4ccc(OC)c(C)c4)CC3)C(=O)[C@H]3CC[C@H](O)CC3)c2)s1` [Compound 2, (1R,4R)-4-hydroxy-N-(((1R,4R)-4-(4-methoxy-3-methylphenyl)cyclohexyl)methyl)-N-(3-(2-methoxythiazol-5-yl)phenyl)cyclohexane-1-carboxamide], the figures for the “reduction in colon W/L as compared to vehicle” value in data set [10] (10 mg/kg) and in data set [10] (30 mg/kg) were 41% and 38%, respectively. Moreover, the “reduction of histopathology sum score” value in [10] (10 mg/kg) is given as 71%; in data set [10] (30 mg/kg), 74%. For the same molecule, the “reduction in body weight from baseline caused by T-cell transfer” value in data set [10] (12% body weight reduction after CD4+CD45RBhi T-cell transfer, Compound 2 at 10 mg/kg) is recorded as “reversed”. Further, the “efficacy in reducing colitis relative to comparators” value in data set [10] (adoptive T-cell transfer model) was “efficacy superior to CsA and comparable to anti-IL-12/23 treatment”.
